Measurements from US20020019421A1, “Compositions and therapy for substance addiction” (priority 2000, published 2002).
“And” between values parts separate entries of the source, which are not always exact repeats. Identical values can stand only once.

Key:
[1] = test system: striatal monoamine oxidase; experiment: Inhibition of striatal monoamine oxidase in mice; format: in vivo
Description: (§1) The inhibitor of monoamine oxidase inhibitor is administered in an effective amount, which is that amount necessary to alleviate, reduce, attenuate, or eliminate the symptoms associated with the addictive disorder, disorder or condition to be treated or to slow disease progression. The monoamine oxidase inhibitor can also be administered prophylactically, in order to prevent symptoms associated with the addicitve disorder or disease, or to delay onset of symptoms associated withdrawal or abstinence. If more than one inhibitor of monoamine oxidase inhibitor is used, the effective amount is that amount of the combination of inhibitor of monoamine oxidase inhibitors that is necessary to alleviate, reduce, eliminate, prevent, or delay onset of the symptoms associated with withdrawal or abstinence. The effective amount will be determined on an individual basis, and will be based in part, on consideration of the particular monoamine oxidase inhibitor, the individual's size and gender, the severity of the symptoms to be treated, the result sought, and the disease, disorder or condition to be treated or prevented. […] The effective amount can be determined by one of ordinary skill in the art, employing such factors and using no more than routine experimentation.

[2] = test system: intestinal monoamine oxidase; experiment: Intestinal monoamine oxidase activity maintained in mice; format: in vivo; settings: 0.6 mg/kg
Description: as §1

[3] = test system: subjects addicted to chronic cigarette smoking; experiment: Experiment One: prospective open trial, self-reported cigarette consumption after quit day
Description: An experimental clinical trial was performed to assess the effect of selegiline alone and in combination with co-administration of nicotine.
In this prospective open trial subjects addicted to chronic cigarette smoking were administered either oral selegiline tablets (Jumex, Janssen, Belgium) 5 mg. b.i.d. or administered, for subjects 8 and 9, combined co-administration of both oral selegiline and nicotine replacement therapy via transdermal patch. Subjects were then monitored for their level of tobacco product consumption during the course of the next 8 weeks. The study protocol relied on the subjective report of the patient for measurement of the therapy outcome, i.e. reporting of level of cigarette consumption was elicited from the participating subjects at weekly intervals intervals throughout the course of the study, unless the patient was using nictotine replacement therapy. Initial, trial entry levels of craving were determined by administration of the Fagerström Tolerance Score exam, while initial level of mood was monitored by administering the Beck Depression Inventory.
Following one week on the medication, the subjects were instructed to quit smoking on “quit day”, as predetermined at the initiation of the study.

[4] = test system: smoking cessation; settings: cited from earlier work

Compound: C#CCN(C)CCCOc1ccc(Cl)cc1Cl [clorgyline]
- preferred effective amount to inhibit 90% of striatal monoamine oxidase while maintaining 50% of intestinal activity [1]: 0.6 mg/kg
- inhibition of striatal monoamine oxidase ([1]; 0.6 mg/kg): 90%
- intestinal monoamine oxidase activity maintained [2]: 50%

Compound: CN1CCC[C@H]1c1cccnc1 [nicotine]
- cigarettes consumed per week ([3]; week 1 from quit day, oral selegiline 5 mg b.i.d. and/or nicotine transdermal patch): 0 Cig/wk
- cigarettes consumed per week ([3]; week 2 from quit day): 0 Cig/wk
- cigarettes consumed per week ([3]; week 3 from quit day): 0 Cig/wk
- cigarettes consumed per week ([3]; week 4 from quit day): 0 Cig/wk
- cigarettes consumed per week ([3]; week 5 from quit day): 0 Cig/wk
- cigarettes consumed per week ([3]; week 6 from quit day): 21 Cig/wk
- cigarettes consumed per week ([3]; week 7 from quit day): 35 Cig/wk
- cigarettes consumed per week ([3]; week 8 from quit day): 60 Cig/wk
- success rate, nicotine patch alone ([4]; N. Eng J Med 1999, 340:685-91): 9.8%
- success rate for smoking cessation, nicotine transdermal patch as sole therapy ([4]; current best accepted / known efficacy): about 20%

Compound: C#CCN(C)[C@H](C)Cc1ccccc1 [selegiline, (R)-(−)-N,2-dimethyl-N-2-propynylphenethylamine]
- efficacy: subjects treated successfully (abstaining or significantly reducing cigarette smoking) ([3]; during treatment, Table 2): about 30%
- outcome in words: effect on cigarette smoking ([3]; open trial, 8 weeks): effective treatment for substance addiction
- cigarettes consumed per week ([3]; week 1 from quit day, oral selegiline 5 mg b.i.d. and/or nicotine transdermal patch, listed as S): 0 Cig/wk (3×) and 21 Cig/wk and 140 Cig/wk and 210 Cig/wk and 35 Cig/wk
- cigarettes consumed per week ([3]; week 2 from quit day, listed as S): 0 Cig/wk (3×) and 21 Cig/wk and 70 Cig/wk
- cigarettes consumed per week ([3]; week 3 from quit day, listed as S): 0 Cig/wk (2×) and 25 Cig/wk and 3 Cig/wk
- cigarettes consumed per week ([3]; week 4 from quit day, listed as S): 0 Cig/wk (3×) and 25 Cig/wk
- cigarettes consumed per week ([3]; week 5 from quit day, listed as S): 0 Cig/wk (2×) and 25 Cig/wk
- cigarettes consumed per week ([3]; week 6 from quit day): 0 Cig/wk
- cigarettes consumed per week ([3]; week 7 from quit day, listed as S): 0 Cig/wk (2×) and 21 Cig/wk
- cigarettes consumed per week ([3]; week 8 from quit day, listed as S): 0 Cig/wk and 21 Cig/wk
- cigarettes consumed per week ([3]; week 9 from quit day): 21 Cig/wk
